Test results as given in US20230374460A1, “Methods for Cardiac Differentiation of Human Induced Pluripotent Stem Cells” (The Trustees of Columbia University in the City of New York, priority 2015, published 2023).

Legend:
human iPSC lines = assay: Monolayer cardiac differentiation of iPSCs into beating cardiomyocytes (serum-containing protocol, optimisation of GSK3 inhibitor dose and oxygen level); type: cell-based; settings: single use, 20% O2
Text: CHIR99021 (GSK3 inhibitor, #1386, Lot #6 & #7, Axon MedChem) and BIO (GSK3 inhibitor IX, #361550, Lot #D00148116, Calbiochem) (Minami et al., Cell reports 2, 1448-1460(2012)), IWP-3 (Wnt inhibitor, #SML0533, Lot #102m4613V, Sigma-Aldrich) resolved in Dimethyl Sulfoxide (DMSO, #276855, Sigma-Aldrich) were used for monolayer differentiation of iPSCs plated on Geltrex in 6-well plate or 10 cm dish. To prepare differentiating culture media, only one freeze and thaw cycle was confirmed for all aliquots of small compounds CHIR99021 and BIO and recombinant human growth factors. Twice freeze and thaw cycle was confirmed for IWP-3 aliquots. For the differentiation protocol with serum-containing media, DF20/5 media was used for cardiac differentiation and culture: DMEM/F-12 (with GlutaMax I) containing 20% or 5% Hyclone FBS, 1% non-essential amino acid, P.S. and 0.1 mM bME. Additional D-glucose was added to only DF20 as high glucose media (final 4.5 g/l) to enhance mesoderm differentiation from Day 1 to Day 4. For BIO and CHIR treatment, media was changed everyday. For IWP-3 treatment, media was changed every other day. DF5 media was used for the maintenance of cardiomyocytes after differentiation (Day 11˜) and media was changed every other day. Changed media using DF20 with small compounds required ˜3 ml per well in 6-well and ˜15 ml per 10 cm dish every other day since adding 2-2.5 ml of fresh media to a well of 6-well plates was not sufficient for high confluence of cells during differentiation into cardiomyocytes, resulting in lower efficiency of cardiac differentiation. […] For the differentiation protocol without serum containing media, Iscove's Modified Dulbecco Media (IMDM, Sigma-Aldrich) with B27 supplement (-minus insulin version, Life Technologies) was used for mesoderm differentiation (Day 1 to Day 3) and IMDM media with B27 (regular version, Life Technologies) was used for further differentiation and maintenance (Day 4˜). […] For the comparison between different serum free monolayer cardiac differentiation protocols (FIG. 3), RPMI1640 media (Sigma-Aldrich) and Activin A and BMP4 (R & D Systems), B27 supplement (both regular & minus insulin version, Life Technologies), human albumin (Sigma) and L-ascorbic acid 2-phosphate (Sigma-Aldrich) were used to make the corresponding differentiation media. In case of using DMEM/F-12 media for serum-free protocol, all cells died during early stage of cardiac differentiation (data not shown). All images and movies were taken in the tissue culture room using TS100F-LED microscope operated by Nikon NIS-Elements with objectives (4×, CFI Plan Fluor DL, NA 0.13; 10×, CFI Achromat ADL, NA0.25; 20×, CFI Achromat LWD ADL, NA 0.4, Nikon). Antibodies to sarcomeric alpha-actinin (clone #EA-53, Sigma-Aldrich) were used for immunocytochemistry of human cardiomyocytes (3-4 weeks later after cardiac differentiation). The cell size was analyzed blindly by E. Uche-Anya using Fiji software (FIG. 6). FACS analyses were performed in Columbia Center for Translational Immunology (CCTI) using a BD FACS Calibur using control and patient cardiomyocytes at day 19. Standard protocol for FACS was used first with 0.5% saponin (Sigma-Aldrich) for permeabilization at blocking step and next with sarcomeric alpha-actinin antibody (Sigma-Aldrich, clone #EA-53, 1/200 dilution) or cardiac troponin T (clone #13-11, Thermo Scientific, 1/500 dilution) and goat anti-mouse Alexa Fluor 488 secondary antibody (Life Technologies, 1/500) in FACS buffer (0.1% saponin, 2% FBS and 2 mM EDTA in Hanks buffer in HEPES, HBSS). The FACS data analyses were blindly performed by J. Feng. The identical cell samples were also used before fixation, for RNA/cDNA preparation and gene expression profiling using qPCR. Dimethyl Sulfoxide (DMSO) quality is critical to get reproducible results using small compounds, especially CHIR99021 (CHIR, #1386, lot #6 & #7, Axon MedChem). DMSO should be kept from ambient air. […]

LQTS cardiomyocytes = assay: Dual optical recording of action potentials (ArcLight) and calcium handling (R-GECO1) in LQTS (Timothy syndrome) iPSC-derived cardiomyocytes; type: cell-based, human
Description: Plasmids of R-GECO1 (Addgene #32462) (Zhao et al., 2011) and ArcLight (Addgene #36857) (Jin et al., 2012) were used as template to amplify the cDNA using Phusion polymerase (Thermo Scientific) with primer sets that allowed us to add restriction enzyme site EcoRI and Kozak sequence before the start codon (without nuclear localization signal for R-GECO) and another site XhoI after the stop codon. These PCR products were subcloned into lentiviral vector that was prepared from LV-SD-Cre (Addgene, #12105, no longer available currently) digested with EcoRI and XhoI. XL-10 Gold competent cells (Agilent) transformed with these LV-SD vectors were inoculated at 24-30° C. The purified LV-SD vectors were transfected together with pCMV-dR8.2 dvpr and pCMV-VSV-G (Addgene #8455 & 8454) as follow: HEK293T cells that were plated at 5×10^5 cell/ml (2 ml per well) one day before were transfected with total 3.4 μg per well (ratio, LV-SD:dR8.2:VSV-G=8:8:1) and LF-2K (8.0 μl per well) in a 6-well plate. The next day the media was changed. Two days after transfection, culture media was harvested (again fresh media was added to transfected HEK 293T cells) and filtered using 0.45 μm PES filter (VWR) and then directly added to wells containing monolayer cardiomyocytes (at 2-3 weeks after inducing cardiac differentiation). No polybrene was used for viral infection. Seventy-two hours after transfection, the culture media was again collected and used as secondary infection. The next day media was changed to DF5 media for infected cardiomyocytes. In case of serum-free condition, Lenti-X concentrator (TaKaRa/Clontech) was used for media change, following the manufacture's instruction. Three to five days after the secondary infection, monolayer cardiomyocytes were transferred to 35 mm glass bottom culture dishes (7 mm diameter, No. 1.5 glass) coated with Geltrex. Nikon Ti-U epi-fluorescent microscope connected to EMCDD Digital Monochrome camera (Evolve, EVO-512-M-FW-16-AC, 512×512, Photometrics) was used with LED light source (Lumencore Spectra X 6 line LED system, with Chroma excitation mounted filters, ET395/25x, ET470/30, ET550/15x, ET640/30x;) with dichroic mirror and emission filter (dichroic mirror, D/F/Cy3/Cy5pc; emission, ET430/36 513/44 595/41 719/105) operated by MetaFlour (Molecular Devices, acquisition: exposure time, 20 ms; gain 3 (6×); transfer speed, 5 MHz, Image size: 512×512; binning, 1.0). Temperature of the bath solution was maintained at approximately 35° C. using a digital temperature controller (TC-344B, Warner Instruments) for the duration of the experiment. Nikon objective lens 40× (CF1 S Fluor, NA 0.90) for cell clusters and 60× (CFI Plan Apo Lambda H, NA 1.40) for single cells were used to capture two fluorescent signals as R-GECO1 (illumination control. 10 in 0-255, cy3) and ArcLight (150 in 0-255, FITC, 4 or 8 frames per sec). Isoproterenol (10 μM, Sigma Aldrich) and R-roscovitine (0.5 and 5 μM) were used for fluorescent imaging. The effect of serum concentration on the imaging using ArcLight and R-GECO1 in control and patient cells was not observed at approximately 35° C. […] Daily imaging in cardiomyocytes infected at day 15 was conducted for 18 days (day 23-40). Additional recordings were performed at day 90 to examine low long ArcLight and R-GECO1 signals are available.
A dual optical imaging system using two genetically encoded indicators, ArcLight for voltage and R-GECO1 for calcium transients, has been developed to efficiently phenotype the patient specific iPSC-derived cardiomyocytes derived from the serum containing protocol (Song, et al. Stem Cells Transl Med. 4(5):468-75 (2015)). […] Those phenotypes of Timothy syndrome patient iPSCs derived cardiomyocytes can be rescued by 5 μM Roscovitine treatment (FIGS. 2B-2C and FIG. 5).

[1] = tested on: control (Ctrl) cardiomyocytes; assay: Dual optical recording of action potentials (ArcLight) and calcium handling (R-GECO1) in control iPSC-derived cardiomyocytes; type: cell-based, human; settings: 5 μM, 10 min
Description: Plasmids of R-GECO1 (Addgene #32462) (Zhao et al., 2011) and ArcLight (Addgene #36857) (Jin et al., 2012) were used as template to amplify the cDNA using Phusion polymerase (Thermo Scientific) with primer sets that allowed us to add restriction enzyme site EcoRI and Kozak sequence before the start codon (without nuclear localization signal for R-GECO) and another site XhoI after the stop codon. These PCR products were subcloned into lentiviral vector that was prepared from LV-SD-Cre (Addgene, #12105, no longer available currently) digested with EcoRI and XhoI. XL-10 Gold competent cells (Agilent) transformed with these LV-SD vectors were inoculated at 24-30° C. The purified LV-SD vectors were transfected together with pCMV-dR8.2 dvpr and pCMV-VSV-G (Addgene #8455 & 8454) as follow: HEK293T cells that were plated at 5×10^5 cell/ml (2 ml per well) one day before were transfected with total 3.4 μg per well (ratio, LV-SD:dR8.2:VSV-G=8:8:1) and LF-2K (8.0 μl per well) in a 6-well plate. The next day the media was changed. Two days after transfection, culture media was harvested (again fresh media was added to transfected HEK 293T cells) and filtered using 0.45 μm PES filter (VWR) and then directly added to wells containing monolayer cardiomyocytes (at 2-3 weeks after inducing cardiac differentiation). No polybrene was used for viral infection. […]

[2] = monolayer of LQTS cardiomyocytes, serum-containing protocol (FIG. 5D)

For `Cc1c[nH]c(-c2cnc(NCCNc3ccc(C#N)cn3)nc2-c2ccc(Cl)cc2Cl)n1` [CHIR], the beating cells (human iPSC lines; CHIR 5 μM) was “provided beating cardiomyocytes and Yes”, the “beating cells, where in the well” value (human iPSC lines; CHIR 5 μM) was “only around the center of well” and the beating cells (human iPSC lines; CHIR 10 μM) was “No”. The beating cells (human iPSC lines; CHIR 15 μM) was “No” and the beating cells (human iPSC lines; CHIR 20 μM) was “No”.

In the case of `CC[C@H](CO)Nc1nc(NCc2ccccc2)c2ncn(C(C)C)c2n1` [Roscovitine], the “phenotypes in action potentials, channel inactivation and calcium handling in Timothy syndrome cardiomyocytes” value (LQTS cardiomyocytes) is reported as “rescued the phenotypes”, the APD90 (LQTS cardiomyocytes; 5 μM, 10 min, LQTS cardiomyocytes, serum-free condition (FIG. 5H)) is reported as “positive effects” and the “number of spontaneous calcium transients” value (LQTS cardiomyocytes; 5 μM, 10 min, LQTS cardiomyocytes, serum-free condition (FIG. 5I)) is reported as “positive effects”. The “phenotypes of Timothy syndrome cardiomyocytes” value (LQTS cardiomyocytes; 5 μM, cardiomyocytes derived using the serum-free protocol) was “rescued the phenotypes”, the “phenotypes (prolonged action potentials and abnormal calcium handling) of Timothy syndrome cardiomyocytes” value (LQTS cardiomyocytes; 5 μM, cardiomyocytes from the serum-containing protocol) was “rescued” and the “irregular calcium handling and electrical activities” value (LQTS cardiomyocytes; 5 μM, single LQTS CMs, before, during and after treatment (FIG. 2B)) was “prevented”. For the same molecule, the “action potential (APD90, 90% from peak)” value (LQTS cardiomyocytes; monolayer of LQTS cardiomyocytes, serum-containing protocol (FIG. 5C)) was “shortened”, the beating rate (LQTS cardiomyocytes; [2]) was “increased” and the “number of spontaneous calcium transients” value (LQTS cardiomyocytes; [2]) was “increased”. The prolonged action potentials (LQTS cardiomyocytes; single LQTS cardiomyocytes, n=12, 4 lines from two patients (FIG. 2C)) was “rescued”, the APD90 ([1]; serum-free protocol (FIG. 5F)) was “no effect” and the “number of spontaneous calcium transients” value ([1]; serum-free protocol (FIG. 5G)) was “no effect”.

`O=C1Nc2cc(Br)ccc2/C1=C1/Nc2ccccc2/C1=N\O` [BIO, (2′ Z,3′ £)-6-Bromoindirubin-3′-oxime] was tested, and the beating cells (human iPSC lines; BIO 1 μM) was “provided beating cardiomyocytes and Yes”, the beating cells (human iPSC lines; BIO 2 μM) was “Yes” and the “beating cells, where in the well” value (human iPSC lines; BIO 2 μM) was “only around the edge of well”. For the same molecule, the beating cells (human iPSC lines; BIO 4 μM) was “No” and the beating cells (human iPSC lines; BIO 8 μM) was “No”.
